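Following 48 hours of exposure in 96-well plates, responses at five concentrations were used to interpolate endpoints linearly. GI50: concentration for 50% inhibition of growth.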 Activity calls are given as the source filed them. No stated cut-off is given here; in the data, active = GI50 up to about 1.1 µM and inactive = higher.
Experiments:
Assay in all cases: NCI tumour cell line growth inhibition, 48 h
[1] = tested on: SF-539
[2] = tested on: A549
[3] = tested on: OVCAR-4
[4] = tested on: Malme-3M
[5] = tested on: SK-MEL-5
[6] = tested on: CAKI-1
[7] = tested on: RXF 393
[8] = tested on: HL-60
[9] = tested on: EKVX
[10] = tested on: NCI-H522
[11] = tested on: SNB-75
[12] = tested on: RPMI-8226
[13] = tested on: HCT-15
[14] = tested on: SK-MEL-2
[15] = tested on: OVCAR-5
[16] = tested on: A498
[17] = tested on: HOP-92

Row | Structure (SMILES) | GI50 [1] | GI50 [2] | GI50 [3] | GI50 [4] | GI50 [5] | GI50 [6] | GI50 [7] | GI50 [8] | GI50 [9] | GI50 [10] | GI50 [11] | GI50 [12] | GI50 [13] | GI50 [14] | GI50 [15] | GI50 [16] | GI50 [17]
1 | CC(C)CCC[C@@H](C)C1CCC2[C@@H]3CC=C4C[C@@H](OC(=O)CCC(=O)NCC[N+](C)(C)CCCS(=O)(=O)[O-])CC[C@]4(C)C3CC[C@@]21C (some centres not stated) | 16.7 µM (inactive) | 17.6 µM (inactive) | 17.9 µM (inactive) | 22.5 µM (inactive) | > 10 µM (inactive) | 40.7 µM (inactive) | 11.3 µM (inactive) | 18.8 µM (inactive) | 29.2 µM (inactive) | 26.2 µM (inactive) | 21.1 µM (inactive) | 20 µM (inactive) | 15.4 µM | 18.8 µM (inactive) |  |  | 
2 | O=c1nc(NC(c2ccccc2)(c2ccccc2)c2ccccc2)ccn1CCCl | 17.8 µM (inactive) | 30 µM (inactive) | 20.6 µM (inactive) | 14.6 µM (inactive) |  |  | 16.1 µM (inactive) | 22.8 µM (inactive) | 26.9 µM (inactive) | 22.8 µM (inactive) | 17.6 µM (inactive) | 17.1 µM (inactive) | 35.4 µM | 15.8 µM (inactive) | 27.5 µM (inactive) | 64.7 µM (inactive) | 14.2 µM (inactive)
3 | CC(=O)NNc1nc(C)c(C(=O)NNC(=O)C(=O)Nc2ccc([N+](=O)[O-])cc2C#N)s1 | > 100 µM (inactive) | > 100 µM (inactive) | 45.3 µM (inactive) | > 100 µM (inactive) | > 100 µM (inactive) |  |  | > 100 µM (inactive) | 96.4 µM (inactive) | 76 µM (inactive) |  | > 100 µM (inactive) | > 100 µM | > 100 µM (inactive) | > 100 µM (inactive) | 58.1 µM (inactive) | 
4 | Cc1c(C(=O)CSc2nc3ccccc3c(=O)n2-c2ccccc2)c(=O)n(-c2ccccc2)n1C | 63.2 µM (inactive) | 64.9 µM (inactive) | > 100 µM (inactive) | 60.5 µM (inactive) | 31.6 µM (inactive) | 0.185 µM (active) |  | > 100 µM (inactive) |  | 27.2 µM (inactive) | 60.8 µM (inactive) | > 100 µM (inactive) | > 100 µM | > 100 µM (inactive) | > 100 µM (inactive) | 42.4 µM (inactive) | 24.3 µM (inactive)
5 | Nc1ncnc(NC2C=C(CO)C(O)C2O)c1[N+](=O)[O-] (configuration not stated) | > 100 µM (inactive) | > 100 µM (inactive) | > 100 µM (inactive) |  | > 100 µM (inactive) | > 100 µM (inactive) | > 100 µM (inactive) | > 100 µM (inactive) | > 100 µM (inactive) |  | > 100 µM (inactive) | > 100 µM (inactive) | 42.9 µM | > 100 µM (inactive) | > 100 µM (inactive) | > 100 µM (inactive) | 
6 | CC(=O)OCCOCNC(=S)N/N=C(\C)c1cnccn1 | 29.8 µM (inactive) | 24.5 µM (inactive) | > 100 µM (inactive) | 30.2 µM (inactive) | 15.4 µM (inactive) |  | 23.2 µM (inactive) | 15.7 µM (inactive) | 22.3 µM (inactive) | 25.2 µM (inactive) | 33.5 µM (inactive) | 42.4 µM (inactive) | 22.1 µM | > 100 µM (inactive) | 7.53 µM (inactive) | 58.6 µM (inactive) | 
7 | CCC1=C(C)/C(=C/c2[nH]c(C(Br)Br)c(CC)c2C)N=C1C(Br)Br | 53 µM (inactive) | 25.2 µM (inactive) |  | 35 µM (inactive) | 16.6 µM (inactive) |  | 29.9 µM (inactive) | 16.9 µM (inactive) | 30.1 µM (inactive) | 13 µM (inactive) | 21.6 µM (inactive) | 9.68 µM (inactive) | 28.2 µM | 38 µM (inactive) | > 100 µM (inactive) |  | 74.1 µM (inactive)
8 | CCc1nnc(S)n1/N=C/c1ccc(-c2ccc([N+](=O)[O-])cc2)o1 | > 100 µM (inactive) | > 100 µM (inactive) | > 100 µM (inactive) | > 100 µM (inactive) |  | > 100 µM (inactive) |  | > 100 µM (inactive) |  | > 100 µM (inactive) | > 100 µM (inactive) | > 100 µM (inactive) | > 100 µM | > 100 µM (inactive) | > 100 µM (inactive) |  | > 100 µM (inactive)
9 | COC(=O)C1=C(C(=O)OC)C2(C)Nc3ccccc3C2=C(c2ccccc2)C1 (configuration not stated) | 17.1 µM (inactive) | 20.4 µM (inactive) | 17.9 µM (inactive) | 18.4 µM (inactive) | 15.5 µM (inactive) |  | 21.3 µM (inactive) | 19.9 µM (inactive) | 28.8 µM (inactive) | 15.8 µM (inactive) | 2.13 µM (inactive) | 10.4 µM (inactive) | 20.8 µM | 17.8 µM (inactive) | 24.5 µM (inactive) |  | 13.3 µM (inactive)
10 | O=c1cc(-c2ccccc2)oc2cc(OCC(O)COc3ccc4c(=O)cc(-c5ccccc5)oc4c3)ccc12 | 22.4 µM (inactive) | > 100 µM (inactive) |  | > 100 µM (inactive) | > 100 µM (inactive) | > 100 µM (inactive) |  | 23 µM (inactive) | > 100 µM (inactive) | 28.4 µM (inactive) |  | > 100 µM (inactive) | 89.1 µM | 21.5 µM (inactive) | > 100 µM (inactive) | > 100 µM (inactive) | 26.5 µM (inactive)
11 | COC12CCC(C(C(=O)c3ccccc3)=C1C(=O)c1ccccc1)C(O)C2 (configuration not stated) | > 100 µM (inactive) | > 100 µM (inactive) | > 100 µM (inactive) | > 100 µM (inactive) | > 100 µM (inactive) | > 100 µM (inactive) |  | > 100 µM (inactive) | > 100 µM (inactive) | > 100 µM (inactive) | > 100 µM (inactive) | > 100 µM (inactive) | > 100 µM | > 100 µM (inactive) |  | 67.3 µM (inactive) | > 100 µM (inactive)
12 | O=C(OC1CC(n2cc(F)c(=O)[nH]c2=O)OC1CSC(=O)c1ccccc1)c1ccccc1 (configuration not stated) | 36.5 µM (inactive) | 29.2 µM (inactive) | 16.6 µM (inactive) | 28.7 µM (inactive) |  |  | 27.3 µM (inactive) | 23.3 µM (inactive) | 33.3 µM (inactive) | 19.5 µM (inactive) | 19.4 µM (inactive) | 22.5 µM (inactive) | 34.2 µM | 48.5 µM (inactive) | 61.8 µM (inactive) | 41.6 µM (inactive) | 22.9 µM (inactive)
13 | CCCCN(CCCC)C(=O)C(=O)CC(=O)c1ccc(Br)cc1 | > 100 µM (inactive) | > 100 µM (inactive) | > 100 µM (inactive) | > 100 µM (inactive) | > 100 µM (inactive) | > 100 µM (inactive) |  | > 100 µM (inactive) | > 100 µM (inactive) | > 100 µM (inactive) |  | > 100 µM (inactive) | > 100 µM | > 100 µM (inactive) | > 100 µM (inactive) | > 100 µM (inactive) | > 100 µM (inactive)
14 | c1ccc2c(C3NCCc4nc[nH]c43)cccc2c1 (configuration not stated) | > 100 µM (inactive) | > 100 µM (inactive) | > 100 µM (inactive) |  | > 100 µM (inactive) | > 100 µM (inactive) | > 100 µM (inactive) |  |  | 98.4 µM (inactive) | > 100 µM (inactive) | > 100 µM (inactive) | > 100 µM | > 100 µM (inactive) | > 100 µM (inactive) | > 100 µM (inactive) | > 100 µM (inactive)
15 | CCCCSC1CCSc2c1ccc1ccccc21 (configuration not stated) | > 100 µM (inactive) | 77.8 µM (inactive) | > 100 µM (inactive) | 10.2 µM (inactive) | > 100 µM (inactive) | > 100 µM (inactive) | 52.8 µM (inactive) | 93.1 µM (inactive) |  |  |  | > 100 µM (inactive) | 6.32 µM | > 100 µM (inactive) | 42 µM (inactive) |  | 46.8 µM (inactive)
16 | CCOC(=O)C1S/C(=N\c2cccc(Cl)c2C)N=C1C (configuration not stated) | 25.6 µM (inactive) | 21.9 µM (inactive) | 31 µM (inactive) | 19.6 µM (inactive) |  |  | 21.7 µM (inactive) | 21.6 µM (inactive) | > 10 µM (inactive) | 18.8 µM (inactive) | 16.3 µM (inactive) | 22 µM (inactive) | > 10 µM | 19.5 µM (inactive) | 18.7 µM (inactive) | 34.2 µM (inactive) | 15.1 µM (inactive)
17 | C[N+](C)(C)CCC(=O)CC[N+](C)(C)C | 19.8 µM (inactive) | > 100 µM (inactive) | 17.7 µM (inactive) | 19.7 µM (inactive) | 35.3 µM (inactive) | 15.7 µM (inactive) | 21.3 µM (inactive) | 4.09 µM (inactive) | 55.3 µM (inactive) | 15.4 µM (inactive) | 19.9 µM (inactive) | 4.68 µM (inactive) | 19.2 µM | 21.5 µM (inactive) |  | 70.5 µM (inactive) | 
18 | CC12CCC(=O)N1c1cc([N+](=O)[O-])ccc1N2 (configuration not stated) | > 100 µM (inactive) | > 100 µM (inactive) | > 100 µM (inactive) | > 100 µM (inactive) | > 100 µM (inactive) |  | > 100 µM (inactive) | > 100 µM (inactive) | > 100 µM (inactive) | > 100 µM (inactive) | > 100 µM (inactive) | > 100 µM (inactive) | > 100 µM | > 100 µM (inactive) |  | > 100 µM (inactive) | 
19 | O=C(NCCCl)SCCO | > 100 µM (inactive) | > 100 µM (inactive) | > 100 µM (inactive) | > 100 µM (inactive) |  |  | > 100 µM (inactive) | > 100 µM (inactive) | > 100 µM (inactive) | > 100 µM (inactive) | > 100 µM (inactive) | > 100 µM (inactive) | > 100 µM | > 100 µM (inactive) | > 100 µM (inactive) | > 100 µM (inactive) | 
